PubChem BioAssay (NCI)
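Protocol summary: plate cells (96-well), add compound at 5 concentrations, incubate 48 h, interpolate endpoints linearly. At the TGI there is no net growth.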

Legend:
Assay in all cases: DTP human tumour cell line panel, 48 h
SR leukemia = test system: SR leukemia
SF-268 CNS = test system: SF-268 CNS
SK-MEL-2 melanoma = test system: SK-MEL-2 melanoma
RXF 393 renal = test system: RXF 393 renal
T-47D breast = test system: T-47D breast
COLO 205 colon = test system: COLO 205 colon
RPMI-8226 leukemia = test system: RPMI-8226 leukemia
OVCAR-8 ovarian = test system: OVCAR-8 ovarian
NCI-H522 lung = test system: NCI-H522 lung
CAKI-1 renal = test system: CAKI-1 renal
MOLT-4 leukemia = test system: MOLT-4 leukemia
U251 CNS = test system: U251 CNS
MALME-3M melanoma = test system: MALME-3M melanoma
UACC-62 melanoma = test system: UACC-62 melanoma
OVCAR-4 ovarian = test system: OVCAR-4 ovarian
A549 NSCLC = test system: A549 NSCLC
HOP-62 NSCLC = test system: HOP-62 NSCLC
SK-MEL-5 melanoma = test system: SK-MEL-5 melanoma
KM12 colon = test system: KM12 colon
UO-31 renal = test system: UO-31 renal

Work on CC(=O)Oc1ccc(/C=C/C(=O)OCCOC(=O)/C=C/c2ccc(OC(C)=O)c(OC(C)=O)c2)cc1OC(C)=O yielded a TGI (SR leukemia) of 20.7 µM, a TGI (SF-268 CNS) of 56.5 µM and a TGI (SK-MEL-2 melanoma) of 55.6 µM. It also gave a TGI (RXF 393 renal) of 21.3 µM, a TGI (T-47D breast) of 43 µM and a TGI (COLO 205 colon) of 28.2 µM. It also gave a TGI (RPMI-8226 leukemia) of 24.5 µM, a TGI (OVCAR-8 ovarian) of 35 µM and a TGI (NCI-H522 lung) of 17 µM. The TGI (CAKI-1 renal) was 11.6 µM, the TGI (MOLT-4 leukemia) was > 38.5 µM and the TGI (U251 CNS) was 22.1 µM. For the same molecule, the TGI (MALME-3M melanoma) was 30.1 µM, the TGI (UACC-62 melanoma) was 16.3 µM and the TGI (OVCAR-4 ovarian) was 28.4 µM. For the same molecule, the TGI (A549 NSCLC) was 50.3 µM, the TGI (HOP-62 NSCLC) was 5.23 µM and the TGI (SK-MEL-5 melanoma) was 20.1 µM. The TGI (KM12 colon) was 22.1 µM and the TGI (UO-31 renal) was 15.3 µM.
With COCOc1c(C(OCOC)c2cnc(Sc3ccccc3)n2C)ccc(OC)c1OC (centres undefined) the TGI (SR leukemia) was > 100 µM, the TGI (SF-268 CNS) was > 100 µM and the TGI (SK-MEL-2 melanoma) was > 100 µM. The TGI (RXF 393 renal) was > 100 µM, the TGI (T-47D breast) was > 100 µM and the TGI (RPMI-8226 leukemia) was > 100 µM. The TGI (OVCAR-8 ovarian) was > 100 µM, the TGI (NCI-H522 lung) was > 100 µM and the TGI (CAKI-1 renal) was > 100 µM. The TGI (MOLT-4 leukemia) was > 100 µM, the TGI (U251 CNS) was > 100 µM and the TGI (MALME-3M melanoma) was > 100 µM. For the same molecule, the TGI (UACC-62 melanoma) was > 100 µM, the TGI (OVCAR-4 ovarian) was > 100 µM and the TGI (A549 NSCLC) was > 100 µM. The TGI (HOP-62 NSCLC) was > 100 µM, the TGI (SK-MEL-5 melanoma) was > 100 µM and the TGI (KM12 colon) was > 100 µM. For the same molecule, the TGI (UO-31 renal) was > 100 µM.
In the case of Cc1cc2c(cc1C)C(=O)/C(=C/c1ccccc1C(=O)O)C2, the TGI (SR leukemia) is reported as 62.7 µM, the TGI (SF-268 CNS) is reported as > 100 µM and the TGI (SK-MEL-2 melanoma) is reported as > 100 µM. The TGI (RXF 393 renal) was > 100 µM, the TGI (T-47D breast) was > 100 µM and the TGI (COLO 205 colon) was 36.3 µM. For the same molecule, the TGI (RPMI-8226 leukemia) was 75.2 µM, the TGI (OVCAR-8 ovarian) was > 100 µM and the TGI (NCI-H522 lung) was > 100 µM. The TGI (CAKI-1 renal) was > 100 µM, the TGI (MOLT-4 leukemia) was > 100 µM and the TGI (U251 CNS) was 68.8 µM. The TGI (MALME-3M melanoma) was > 100 µM, the TGI (UACC-62 melanoma) was > 100 µM and the TGI (OVCAR-4 ovarian) was > 100 µM. The TGI (A549 NSCLC) was > 100 µM, the TGI (HOP-62 NSCLC) was > 100 µM and the TGI (SK-MEL-5 melanoma) was > 100 µM. For the same molecule, the TGI (KM12 colon) was > 100 µM and the TGI (UO-31 renal) was > 100 µM.
N#CCC1(c2ccc(Cl)cc2)NC(=O)c2ccccc21 (centres undefined) was tested, and the TGI (SR leukemia) was > 100 µM, the TGI (SF-268 CNS) was > 100 µM and the TGI (SK-MEL-2 melanoma) was > 100 µM. The TGI (RXF 393 renal) was > 100 µM, the TGI (T-47D breast) was > 100 µM and the TGI (COLO 205 colon) was > 100 µM. The TGI (RPMI-8226 leukemia) was > 100 µM, the TGI (OVCAR-8 ovarian) was > 100 µM and the TGI (NCI-H522 lung) was > 100 µM. The TGI (CAKI-1 renal) was > 100 µM, the TGI (MOLT-4 leukemia) was > 100 µM and the TGI (U251 CNS) was > 100 µM. The TGI (MALME-3M melanoma) was > 100 µM, the TGI (UACC-62 melanoma) was > 100 µM and the TGI (OVCAR-4 ovarian) was > 100 µM. The TGI (A549 NSCLC) was > 100 µM, the TGI (HOP-62 NSCLC) was > 100 µM and the TGI (SK-MEL-5 melanoma) was > 100 µM. For the same molecule, the TGI (KM12 colon) was > 100 µM and the TGI (UO-31 renal) was > 100 µM.
In the case of COc1ccc2c(c1)CCc1c-2n(CCN2CCOCC2)c2ccc(OC)cc12, the TGI (SR leukemia) is reported as 34.8 µM, the TGI (SF-268 CNS) is reported as > 100 µM and the TGI (SK-MEL-2 melanoma) is reported as > 100 µM. The TGI (RXF 393 renal) was > 100 µM, the TGI (T-47D breast) was > 100 µM and the TGI (COLO 205 colon) was > 100 µM. For the same molecule, the TGI (RPMI-8226 leukemia) was > 100 µM, the TGI (OVCAR-8 ovarian) was > 100 µM and the TGI (NCI-H522 lung) was > 100 µM. The TGI (CAKI-1 renal) was > 100 µM, the TGI (MOLT-4 leukemia) was 41.1 µM and the TGI (U251 CNS) was > 100 µM. For the same molecule, the TGI (MALME-3M melanoma) was > 100 µM, the TGI (UACC-62 melanoma) was > 100 µM and the TGI (OVCAR-4 ovarian) was > 100 µM. For the same molecule, the TGI (A549 NSCLC) was > 100 µM, the TGI (HOP-62 NSCLC) was > 100 µM and the TGI (SK-MEL-5 melanoma) was > 100 µM. For the same molecule, the TGI (KM12 colon) was > 100 µM and the TGI (UO-31 renal) was > 100 µM.
CC(C)(C)OC(=O)NC(CS(=O)(=O)O)C(=O)O (centres undefined) was tested, and the TGI (SR leukemia) was > 100 µM, the TGI (SF-268 CNS) was > 100 µM and the TGI (SK-MEL-2 melanoma) was > 100 µM. The TGI (RXF 393 renal) was > 100 µM, the TGI (T-47D breast) was > 100 µM and the TGI (COLO 205 colon) was > 100 µM. The TGI (RPMI-8226 leukemia) was > 100 µM, the TGI (OVCAR-8 ovarian) was > 100 µM and the TGI (NCI-H522 lung) was > 100 µM. The TGI (CAKI-1 renal) was > 100 µM, the TGI (MOLT-4 leukemia) was > 100 µM and the TGI (U251 CNS) was > 100 µM. The TGI (MALME-3M melanoma) was > 100 µM, the TGI (UACC-62 melanoma) was > 100 µM and the TGI (OVCAR-4 ovarian) was > 100 µM. The TGI (A549 NSCLC) was > 100 µM, the TGI (HOP-62 NSCLC) was > 100 µM and the TGI (SK-MEL-5 melanoma) was > 100 µM. The TGI (KM12 colon) was > 100 µM and the TGI (UO-31 renal) was > 100 µM.
For CCOC(=O)C(NC(=O)c1ccccc1)(Nc1ccc(S(=O)(=O)Nc2cc(C)nc(C)n2)cc1)C(F)(F)F (centres undefined), the TGI (SR leukemia) was > 100 µM, the TGI (SF-268 CNS) was > 100 µM and the TGI (SK-MEL-2 melanoma) was > 100 µM. The TGI (RXF 393 renal) was > 100 µM, the TGI (T-47D breast) was > 100 µM and the TGI (COLO 205 colon) was > 100 µM. For the same molecule, the TGI (RPMI-8226 leukemia) was > 100 µM, the TGI (OVCAR-8 ovarian) was > 100 µM and the TGI (NCI-H522 lung) was > 100 µM. For the same molecule, the TGI (CAKI-1 renal) was > 100 µM, the TGI (MOLT-4 leukemia) was > 100 µM and the TGI (U251 CNS) was > 100 µM. For the same molecule, the TGI (MALME-3M melanoma) was > 100 µM, the TGI (UACC-62 melanoma) was > 100 µM and the TGI (OVCAR-4 ovarian) was > 100 µM. The TGI (A549 NSCLC) was > 100 µM, the TGI (HOP-62 NSCLC) was > 100 µM and the TGI (SK-MEL-5 melanoma) was > 100 µM. For the same molecule, the TGI (KM12 colon) was > 100 µM and the TGI (UO-31 renal) was > 100 µM.
Nc1nnc2oc3ccc4ccccc4c3cc1-2 was tested, and the TGI (SR leukemia) was 72.7 µM, the TGI (SF-268 CNS) was > 100 µM and the TGI (SK-MEL-2 melanoma) was 72.5 µM. The TGI (RXF 393 renal) was > 100 µM, the TGI (T-47D breast) was 65.4 µM and the TGI (COLO 205 colon) was 56.8 µM. For the same molecule, the TGI (RPMI-8226 leukemia) was > 100 µM, the TGI (OVCAR-8 ovarian) was > 100 µM and the TGI (NCI-H522 lung) was > 100 µM. For the same molecule, the TGI (CAKI-1 renal) was > 100 µM, the TGI (MOLT-4 leukemia) was > 100 µM and the TGI (U251 CNS) was > 100 µM. For the same molecule, the TGI (MALME-3M melanoma) was 89.8 µM, the TGI (UACC-62 melanoma) was > 100 µM and the TGI (OVCAR-4 ovarian) was > 100 µM. For the same molecule, the TGI (A549 NSCLC) was > 100 µM, the TGI (HOP-62 NSCLC) was > 100 µM and the TGI (SK-MEL-5 melanoma) was > 100 µM. The TGI (KM12 colon) was > 100 µM and the TGI (UO-31 renal) was > 100 µM.
NS(=O)(=O)c1nnc(NS(=O)(=O)c2ccc(Cl)cc2)s1 was tested, and the TGI (SR leukemia) was > 100 µM, the TGI (SF-268 CNS) was > 100 µM and the TGI (SK-MEL-2 melanoma) was > 100 µM. The TGI (RXF 393 renal) was > 100 µM, the TGI (T-47D breast) was > 100 µM and the TGI (COLO 205 colon) was > 100 µM. The TGI (RPMI-8226 leukemia) was > 100 µM, the TGI (OVCAR-8 ovarian) was > 100 µM and the TGI (NCI-H522 lung) was > 100 µM. For the same molecule, the TGI (CAKI-1 renal) was > 100 µM, the TGI (MOLT-4 leukemia) was > 100 µM and the TGI (U251 CNS) was > 100 µM. For the same molecule, the TGI (MALME-3M melanoma) was > 100 µM, the TGI (UACC-62 melanoma) was > 100 µM and the TGI (OVCAR-4 ovarian) was > 100 µM. For the same molecule, the TGI (A549 NSCLC) was > 100 µM, the TGI (HOP-62 NSCLC) was > 100 µM and the TGI (SK-MEL-5 melanoma) was > 100 µM. The TGI (KM12 colon) was > 100 µM and the TGI (UO-31 renal) was > 100 µM.
